# According to US6436441B1, “Hydrogel-forming sustained-release preparation” (Yamanouchi Pharmaceutical Co., Ltd., priority 1992, dated 2002):
# Conditions: JP method, 25 ± 5° C.; the additive itself
smiles,measurement,value
O=C(CO)[C@@H](O)[C@H](O)[C@H](O)CO [D-Fructose],Solubility (volume of water required for dissolving 1 gram),1 mL
